Data set [1] deals with Bacillus subtilis NRRL B-558. As to the kind of experiment: MIC by tube dilution method in brain heart infusion broth. Type of data set: cell-based. The note with it: NRRLB558, brain heart infusion broth pH 7.5. On the procedure: (§1) The minimum growth inhibitory concentrations (MIC) of the compounds (I) against various microorganisms were measured by a tube dilution method in a brain heart infusion broth (pH 7.5) as a medium.

Data set [2] deals with Corynebacterium bovis 1810. Described as above. The note with it: Corynebacterium bovis 1810; brain heart infusion broth pH 7.5; read-out: Minimum growth inhibitory concentration. Type of data set: cell-based. On the procedure:
as §1

The test system of data set [3] is Escherichia coli NIHJ. The description is as above. Type of data set: cell-based. The note with it: Escherichia coli NIHJ; brain heart infusion broth pH 7.5; read-out: Minimum growth inhibitory concentration. On the procedure: as §1
Data set [4] has as its system Klebsiella pneumoniae PCI602. Described as above. The note with it: brain heart infusion broth pH 7.5. Type of data set: cell-based. On the procedure: as §1
The test system of data set [5] is Mycoplasma gallisepticum KP-13. The description is as above. The note with it: Mycoplasmoides gallisepticum, KP13; Mycoplasma gallisepticum KP-13; brain heart infusion broth pH 7.5; read-out: Minimum growth inhibitory concentration. Type of data set: cell-based. The method, then: as §1
Data set [6] relates to Sartina lutea PCI 1001. The data set is described as above. Type of data set: cell-based. The note with it: Sartina lutea PCI 1001; brain heart infusion broth pH 7.5; read-out: Minimum growth inhibitory concentration. The method, then:
as §1

Data set [7] relates to Shigella dysenteriae JS 11910. The data set is described as above. The format is cell-based. The note with it: JS11910, pH 7.5, read-out: Minimum growth inhibitory concentration. On the procedure: as §1
Data set [8] has as its system Staphylococcus aureus 209P. The data set is described as above. The format is cell-based. The note with it: brain heart infusion broth pH 7.5. On the procedure:
as §1

The test system of data set [9] is Staphylococcus aureus MS10225. Described as above. The note with it: Staphylococcus aureus MS10225 (resistant to tylosin); brain heart infusion broth pH 7.5; read-out: Minimum growth inhibitory concentration. Type of data set: cell-based. On the procedure: as §1
Data set [10] concerns Staphylococcus aureus MS9861. The description is as above. The note with it: MS9861, Table 2-2, brain heart infusion broth pH 7.5, read-out: Antimicrobial activity (MIC) Staphylococcus aureus MS9861. Type of data set: cell-based. On the procedure: as §1
On the set-up of data set [11]: species or system mice. The note with it: mouse, in vivo, po. On the procedure:
• (2) Concentration in the blood • (2-1) The concentration of the antibiotic YT-3927 of formula (I-a) in the blood was measured by bioassay with […] lutea using mice. […] Then, periodically, the concentration of the antibiotic YT-3927 in the blood was measured. The peak of the blood concentration was noted 1.5 to 2 hours after the administration, and at the peak, the concentration was […]. In contrast, in the same experiment with tylosin, the peak was noted 1.5 to 2 hours later, but the concentration was less than one-fifth of that of the antibiotic YT-3927. • (2-2) The concentration of each of the antibiotic YT-3927 derivatives of formula (I-b) in the blood was measured by bioassay with […] lutea using mice. […] The concentration of the derivative (I-b) in the blood was periodically measured. The concentration of each of the compounds (I-b) 2 hours after the administration is shown in Table 3. [formula] • (3) Toxicity

Converted amounts (≈) assume the structure as drawn. Read-outs that look alike come from different tables or passages of the source.

For `CC[C@H]1OC(=O)C[C@@H](O)[C@H](C)[C@@H](O[C@@H]2O[C@H](C)[C@@H](O[C@H]3C[C@@](C)(O)[C@@H](O)[C@H](C)O3)[C@H](N(C)C)[C@H]2O)[C@@H](CC=O)C[C@@H](C)C(=O)/C=C/C(C)=C/[C@@H]1CO[C@@H]1O[C@H](C)[C@@H](O)[C@@H](OC)[C@H]1OC` [Tylosin, reference compound], the MIC in data set [1] (Bacillus subtilis, Table 2-2, read-out: Antimicrobial activity (MIC) Bacillus subtilis NRRL B558) is 0.8 µg/mL (≈ 0.873 µM); in [1] (Bacillus subtilis NRRL B-558, Table 2-1, read-out: Minimum growth inhibitory concentration), 0.78 µg/mL (≈ 0.851 µM); in data set [2], less than 0.2 µg/mL; in [3], 100 µg/mL (≈ 109 µM); in data set [4] (Klebsiella pneumoniae PCI602, Table 2-1, read-out: Minimum growth inhibitory concentration), 25 µg/mL (≈ 27.3 µM); in data set [4] (Klebsiella pneumoniae, PCI602, Table 2-2, read-out: Antimicrobial activity (MIC) Klebsiella pneumonae PCI602) it was 25 µg/mL (≈ 27.3 µM). Also, the MIC in [5] is 0.02 µg/mL (≈ 0.0218 µM); in data set [6] it was less than 0.2 µg/mL; in [7], 25 µg/mL (≈ 27.3 µM); in data set [8] (Staphylococcus aureus 209P, Table 2-1, read-out: Minimum growth inhibitory concentration), 0.78 µg/mL (≈ 0.851 µM); in [8] (Staphylococcus aureus, 209P, Table 2-2, read-out: Antimicrobial activity (MIC) Staphylococcus aureus 209P) it was 0.8 µg/mL (≈ 0.873 µM); in data set [9] it was 3.12 µg/mL (≈ 3.41 µM). In addition, the MIC in data set [10] was found to be 6.3 µg/mL (≈ 6.88 µM). In data set [11], the “peak concentration in the blood as a fraction of that of the antibiotic YT-3927” value is recorded as “less than one-fifth”.

For the origin of these results see patent EP0052361A1, “Novel 16-membered macrolide compounds” (SANRAKU-OCEAN CO., LTD., priority 1980, dated 1982).
